Like-named read-outs stand apart in the source and are kept apart here. Marks after values point to notes of the source that are not given here. Values belong to the compound of their own block, whether it stands above or below them.
How the values were obtained:
[1] = Cu^2+ complex, T = 25 °C, I = 0.15 M NaCl, cited from earlier work; for log KMnHL / log KMnL: ref 16 (PC2A ligands), 12 (DO2A ligands), 20 (H21,7-O2DO2A)
[2] = T = 25 °C, I = 0.15 M NaCl, ref 16 (PC2A ligands), 12 (DO2A ligands), cited from earlier work; for log K1^H / log K2^H / log K3^H / Σlog Κ2^H: 20 (H21,7-O2DO2A); for Σlog Κ2^H: log K1^H + log K2^H
[3] = Mg^2+ complex, cited from earlier work
[4] = Mn(II) complex, 25 °C, pH = 7.4, cited from earlier work
[5] = Zn^2+ complex, T = 25 °C, I = 0.15 M NaCl, cited from earlier work; for log KMnL / log KMnHL: ref 16 (PC2A ligands), 12 (DO2A ligands)
[6] = T = 25 °C, cited from earlier work; for log KMnL / pMn / log KMnHL: ref 16 (PC2A ligands), 12 (DO2A ligands); for log KMnL / pMn: 20 (H21,7-O2DO2A); for pMn: pMn = −log(Mn(II)free), cMn^2+ = cligand = 1 × 10^−5 M, pH = 7.4
[7] = Ca^2+ complex, cited from earlier work
[8] = pH = 6.0, 25 equivalents of Zn(II), 37 °C, cited from earlier work
[9] = cited from earlier work
[10] = cited from earlier work; remark: listed apart in the source
[11] = Stability test of 52Mn-labeled complexes in rat serum (radio-TLC); format: in vitro ADME; settings: room temperature, up to 7 days
Method: Stability test of [[^52Mn]Mn(3,9-PC2A)] and [[^52Mn]Mn(3,9-OPC2A)] in rat serum. 100 µL aqueous solution of each radiolabeled complex (~7.5 MBq) was mixed with 100 uL of rat serum, and incubated at room temperature. Aliquots were taken and analyzed at the beginning and after 1, 2, 3, and 20 h, and 2, 3, and 7 days later, by the radio-TLC method, as explained mentioned above.

[12] = EDTA challenge of 52Mn-labeled complexes (transchelation); format: physicochemical; settings: 0.2 M H4EDTA (pH 7.4), room temperature, 7 days
Method: EDTA challenge of [[^52Mn]Mn(3,9-PC2A)] and [[^52Mn]Mn(3,9-OPC2A)]. 50 µL aqueous solution of each radiolabeled complex (~3.75 MBq) was incubated with 50 µL of 0.2 M EDTA (pH 7.4) solution at room temperature. Aliquots were taken and analyzed by the radio-TLC method, as mentioned above, at the beginning and after 1, 2, 3, and 20 h, and 2, 3, and 7 days incubation time.

[13] = Octanol/water partition coefficient (logP) of 52Mn-labeled complexes; format: physicochemical
Method: Determination of logP values of the [[^52Mn]Mn(3,9-PC2A)] and [[^52Mn]Mn(3,9-OPC2A)] chelates. 100 µL aqueous solution of each radiolabeled complex (~7.5 MBq) was added to 100 µL of octanol. The mixture was shaken with a vortex shaker (5 min, 1000 rpm) and centrifuged (5 min, 10,000 rpm). A total of 3 × 20 µL from the octanol and 3 × 20 µL from the water were pipetted into test tube, respectively. The radioactivity of the samples was measured with a gamma detector.

[14] = Metal challenge of 52Mn-labeled complexes (transmetalation); format: physicochemical; settings: ZnCl2, CuCl2, MgCl2, CaCl2 mixture, room temperature, 7 days
Method: Metal challenge of [[^52Mn]Mn(3,9-PC2A)] and [[^52Mn]Mn(3,9-OPC2A)]. 49 µL aqueous solution of each radiolabeled complex (~3.75 MBq) was incubated with a 1:1 mixture of 0.1 mM ZnCl2 and 0.01 mM CuCl2 (1 µL), and a 1:1 mixture of 1.02 mM MgCl2 and 2.28 mM CaCl2 (50 µL) at room temperature. Samples were taken from the mixtures at the beginning and after 1, 2, 3, and 20 h, and 2, 3, and 7 days later. For the analysis of the samples, the above-mentioned radio-TLC method was applied.

[15] = T = 25 °C, I = 0.15 M NaCl, ref 16 (PC2A ligands), 20 (H21,7-O2DO2A)
[16] = 0.49 T, ref 16 (PC2A ligands), 12 (DO2A ligands), 20 (H21,7-O2DO2A)
[17] = T = 25 °C, I = 0.15 M NaCl, ref 16 (PC2A ligands), 12 (DO2A ligands), 20 (H21,7-O2DO2A)

SMILES: O=C(O)CN1CCOCCN(CC(=O)O)CCOCC1 [H21,7-O2DO2A]
log KMnLOH [1]: 11.95 | log KMnHL [1]: 2.46 | log KMnL [1]: 14.56 | log K1^H [2]: 8.05 | log K2^H [2]: 7.43 | log K3^H [2]: 2.06 | Σlog Κ2^H [2]: 15.48 | log KMnL [3, 15]: 3.91 | r1p [4, 16]: 2.86 mM⁻¹ s⁻¹ | log KMnLOH ([5]; DO2A values carry footnote f, ref 12 (DO2A ligands), 20 (H21,7-O2DO2A)): 11.40 | log KMnL ([5]; 20 (H21,7-O2DO2A)): 10.55 | log KMnLOH ([6]; Mn^2+ complex, I = 0.15 M NaCl): 12.38 | log KMnL ([6]; Mn^2+ complex, I = 0.15 M NaCl): 9.38 | pMn [6]: 6.67 | log KMnL [7, 17]: 6.96

SMILES: O=C(O)CN1CCNCc2cccc(n2)CN(CC(=O)O)CC1 [H23,6-PC2A]
log KMnHL [1]: 2.37 ^g | log KMnL [1]: 24.09 ^g | log K1^H [2]: 10.72 | log K2^H [2]: 8.37 | log K3^H [2]: 3.81 | log K4^H [2]: 1.26 | Σlog Κ2^H [2]: 19.09 | log KMnHL ([3]; T = 25 °C, I = 0.15 M NaCl): 5.87 | log KMnL [3, 15]: 8.11 | r2p ([4]; 0.49 T): 3.49 mM⁻¹ s⁻¹ | r1p [4, 16]: 2.72 mM⁻¹ s⁻¹ | r1p ([4]; 1.41 T): 2.40 mM⁻¹ s⁻¹ | r2p ([4]; 1.41 T): 4.20 mM⁻¹ s⁻¹ | log KMnL ([5]; 20 (H21,7-O2DO2A)): 20.37 | log KMnHL [5]: 2.36 | log KMnL ([6]; Mn^2+ complex, I = 0.15 M NaCl): 15.53 | log KMnHL ([6]; Mn^2+ complex, I = 0.15 M NaCl): 3.06 | pMn [6]: 8.09 | log KMnHL ([7]; T = 25 °C, I = 0.15 M NaCl): 5.27 | log KMnL [7, 17]: 9.57

SMILES: O=C(O)CN1CCNCCN(CC(=O)O)Cc2cccc(n2)C1 [H23,9-PC2A, pyclen-3,9-diacetate]
log KMnHL [1]: 2.12 ^g | log KMnL [1]: 23.58 ^g | log K1^H [2]: 12.25 | log K2^H [2]: 5.97 | log K3^H [2]: 3.47 | log K4^H [2]: 1.99 | Σlog Κ2^H [2]: 18.22 | log KMnHL ([3]; T = 25 °C, I = 0.15 M NaCl): 5.91 | log KMnL [3, 15]: 9.84 | log KMnL ([3]; value in parenthesis): 8.4 | r2p ([4]; 0.49 T): 3.96 mM⁻¹ s⁻¹ | r1p [4, 16]: 2.91 mM⁻¹ s⁻¹ | r1p ([4]; 1.41 T): 2.24 mM⁻¹ s⁻¹ | r2p ([4]; 1.41 T): 4.82 mM⁻¹ s⁻¹ | log KMnL ([5]; 20 (H21,7-O2DO2A)): 19.49 | log KMnHL [5]: 2.74 | log KMnL ([6]; Mn^2+ complex, I = 0.15 M NaCl): 17.09 | log KMnHL ([6]; Mn^2+ complex, I = 0.15 M NaCl): 2.14 | pMn [6]: 8.64 | log KMnHL ([7]; T = 25 °C, I = 0.15 M NaCl): 5.08 | log KMnL [7, 17]: 9.92 | log KMnL ([7]; value in parenthesis): 10.0

SMILES: O=C([O-])CN1CCNCCN(CC(=O)[O-])Cc2cccc(n2)C1.[Mn+2] [[Mn(3,9-PC2A)]]
kobs ([8]; previously reported): (3.28 ± 0.03) × 10^−4 s^−1 | r1^298_20 MHz ([9]; 20 MHz, 298 K): 2.91 mM⁻¹ s⁻¹ | ΔH^‡ ([9]; activation enthalpy of water exchange): 37.5 kJmol^−1 | q ([9]; hydration number, fixed during the fitting procedure): 1 | kex^298 ([9]; water exchange rate with bulk solvent): 1.26e+08 s⁻¹ | kex^298 ([9]; water exchange rate): 12.6 10^7s^−1 | t1/2 (h) at pH = 7.4 ([10]; extrapolated to pH = 7.4, ref 16 (PC2A complexes), 12, 13, 20): 21.0 h | k3 ([10]; metal assisted dissociation, T = 25 °C, I = 0.15 M NaCl): 0.036 M⁻¹ s⁻¹ | k1 ([10]; proton assisted dissociation, T = 25 °C, I = 0.15 M NaCl, ref 16 (PC2A complexes), 12, 13, 20): 221 M⁻¹ s⁻¹ | KMnL x H ([10]; protonation constant of the complex from kinetic fit, T = 25 °C, I = 0.15 M NaCl): 3.6 × 10^3 | KML x Cu ([10]; stability constant of dinuclear intermediate, T = 25 °C, I = 0.15 M NaCl, unit assumed): 26 M⁻¹ | pMn [6]: 8.64

SMILES: O=C([O-])CN(CC(=O)[O-])C1CCCCC1N(CC(=O)[O-])Cc1ccccn1.[Mn+2] (stereo not drawn) [[Mn(PyC3A)]]
kobs [8]: (6.76 ± 0.04) × 10^−4 s^−1

stability in rat serum [11]: remained intact even after seven days | logP [13]: −2.56 | complex dissociated in metal challenge [14]: about 30%
SMILES: O=C([O-])CN1CCOCCN(CC(=O)[O-])Cc2cccc(n2)C1.[52Mn+2] [[[^52Mn]Mn(3,9-OPC2A)]]
transchelation in H4EDTA challenge [12]: slower and was not completed after seven days

stability in rat serum [11]: remained intact even after seven days | transchelation in H4EDTA challenge [12]: transchelation was complete | logP [13]: −2.51 | inertness in metal challenge [14]: stayed intact
SMILES: O=C([O-])CN1CCNCCN(CC(=O)[O-])Cc2cccc(n2)C1.[52Mn+2] [[[^52Mn]Mn(3,9-PC2A)]]

From PMC8778187, “A New Oxygen Containing Pyclen-Type Ligand as a Manganese(II) Binder for MRI and ^52Mn PET Applications: Equilibrium, Kinetic, Relaxometric, Structural and Radiochemical Studies” (Molecules, 2022)
